Test results published in patent publication US7514433B2, “1H-indole-6-yl-piperazin-1-yl-methanone derivatives” (Hoffmann-La Roche Inc., priority 2006, dated 2009).
Counter-ions that a name gives are not always drawn.

target: T1, histamine 3 receptor (H3R) (Homo sapiens, UniProt Q9Y5N1); assay: Binding assay with 3H-(R)α-methylhistamine (competition binding, membranes of the human HR3-CHO cell line); settings: competition against 3H(R)α-methylhistamine (1 nM), Ki calculated from IC50 by the Cheng-Prusoff equation
T1 construct: expressed in transfected cells; host or cells: CHO cells (HR3-CHO cell line), membranes
Protocol: Binding assay with ^3H-(R)α-methylhistamine
Saturation binding experiments were performed using HR3-CHO membranes prepared as described in Takahashi, K, Tokita, S., Kotani, H. (2003) J. Pharmacol. Exp. Therapeutics 307, 213-218.
An appropriate amount of membrane (60 to 80 μg protein/well) was incubated with increasing concentrations of ^3H(R)α-Methylhistamine di-hydrochloride (0.10 to 10 nM). Non specific binding was determined using a 200 fold excess of cold (R)α-Methylhistamine dihydrobromide (500 nM final concentration). The incubation was carried out at room temperature (in deep-well plates shaking for three hours). The final volume in each well was 250 μl. The incubation was followed by rapid filtration on GF/B filters (pre-soaked with 100 μl of 0.5% PEI in Tris 50 mM shaking at 200 rpm for two hours). The filtration was made using a cell-harvester and the filter plates were then washed five times with ice cold washing buffer containing 0.5 M NaCl. After harvesting, the plates were dried at 55° C. for 60 min, then we added scintillation fluid (Microscint 40, 40 microl in each well) and the amount of radioactivity on the filter was determined in Packard top-counter after shaking the plates for two hours at 200 rpm at room temperature.
Binding Buffer: 50 mM Tris-HCl pH 7.4 and 5 mM MgCl2×6H2O pH 7.4.
Washing Buffer: 50 mM Tris-HCl pH 7.4 and 5 mM MgCl2×6H2O and 0.5 M NaCl pH 7.4.
Indirect measurement of affinity of H3R inverse agonists: twelve increasing concentrations (ranging from 10 μM to 0.3 nM) of the selected compounds were always tested in competition binding experiments using membrane of the human HR3-CHO cell line. […]
All compounds were tested at a single concentration in duplicate. […] Ki's were calculated from IC50 based on Cheng-Prusoff equation (Cheng, Y, Prusoff, W H (1973) Biochem Pharmacol 22, 3099-3108): Ki=IC50/[1+D/Kd] wherein D is the concentration of the radioligand and Kd is the binding constant for the radioligand binding to the receptor under the conditions used in the competition experiment.

T1 sequence (Q9Y5N1 whole entry): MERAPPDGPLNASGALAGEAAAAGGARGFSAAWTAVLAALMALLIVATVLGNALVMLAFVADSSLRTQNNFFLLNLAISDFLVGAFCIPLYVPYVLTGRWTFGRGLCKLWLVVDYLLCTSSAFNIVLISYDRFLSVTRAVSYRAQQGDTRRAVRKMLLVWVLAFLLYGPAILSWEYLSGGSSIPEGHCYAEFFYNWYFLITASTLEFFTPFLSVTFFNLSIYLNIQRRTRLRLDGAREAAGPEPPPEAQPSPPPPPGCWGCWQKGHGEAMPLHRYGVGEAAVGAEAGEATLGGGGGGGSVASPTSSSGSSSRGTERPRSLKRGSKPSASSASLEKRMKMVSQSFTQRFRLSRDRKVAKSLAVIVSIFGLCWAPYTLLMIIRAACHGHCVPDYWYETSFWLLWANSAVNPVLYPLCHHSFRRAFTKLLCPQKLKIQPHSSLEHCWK

| Ki | Structure (SMILES) |
| --- | --- |
| 33.1 nM | CN1CCCC1c1c[nH]c2cc(C(=O)N3CCN(C4CCCC4)CC3)ccc12 (stereo not drawn) [Example 35, (4-Cyclopentyl-piperazin-1-yl)-[3-(1-methyl-pyrrolidin-2-yl)-1H-indol-6-yl]-methanone] |
| 17.6 nM | CC(C)CN1CC=C(c2cn(-c3ccc(F)cc3F)c3cc(C(=O)N4CCN(C(C)C)CC4)ccc23)CC1 [Example 54, [1-(2,4-Difluoro-phenyl)-3-(1-isobutyl-1,2,3,6-tetrahydro-pyridin-4-yl)-1H-indol-6-yl]-(4-isopropyl-piperazin-1-yl)-methanone] |
| 24.3 nM | CC(C)CN1CCC(c2c[nH]c3cc(C(=O)N4CCN(C(C)C)CC4)ccc23)CC1 [Example 2, [3-(1-Isobutyl-piperidin-4-yl)-1H-indol-6-yl]-(4-isopropyl-piperazin-1-yl)-methanone; hydrochloride] |
